Measured values published in ChEMBL document CHEMBL1649270, “ST-246 inhibits in vivo poxvirus dissemination, virus shedding, and systemic disease manifestation” (2009).
The source made the active and inactive calls. The calls are words filed in the database; no cut-off is given here.

Assays:
[1] = tested on: Vaccinia virus WR; assay: Antiviral activity against Vaccinia virus WR ATCC VR-1354 infected through percutaneous route in BALB/c mouse assessed as reduction of viral load in brain at 100 mg/kg, po qd measured after 13 days postinfection by RT-PCR analysis relative to control; assay type: functional, organism-based; parameters: dose 100 mg/kg
[2] = tested on: Vaccinia virus WR; assay: Antiviral activity against Vaccinia virus WR ATCC VR-1354 infected through dermal scarification route in BALB/c mouse assessed as reduction of viral load in lung at 100 mg/kg, po qd measured after 14 days postinfection by RT-PCR analysis relative to control; assay type: functional, organism-based; parameters: dose 100 mg/kg
[3] = tested on: Vaccinia virus WR; assay: Antiviral activity against Vaccinia virus WR ATCC VR-1354 infected through dermal scarification route in BALB/c mouse assessed as reduction of viral load in blood at 100 mg/kg, po qd measured after 5 days postinfection by RT-PCR analysis relative to control; assay type: functional
[4] = tested on: Vaccinia virus WR; assay: Antiviral activity against Vaccinia virus WR ATCC VR-1354 infected through percutaneous route in BALB/c mouse assessed as reduction of viral load in brain at 100 mg/kg, po qd measured after 7 days postinfection by RT-PCR analysis relative to control; assay type: functional, organism-based; parameters: dose 100 mg/kg
[5] = tested on: Vaccinia virus WR; assay: Antiviral activity against Vaccinia virus WR ATCC VR-1354 infected through percutaneous route in BALB/c mouse assessed as inhibition of virus dissemination in brain at 100 mg/kg, po qd for 3 to 14 days by RT-PCR analysis; assay type: functional, organism-based; parameters: dose 100 mg/kg
[6] = tested on: Vaccinia virus WR; assay: Antiviral activity against Vaccinia virus WR ATCC VR-1354 infected through dermal scarification route in BALB/c mouse assessed as protection against virus-induced conjunctivitis in mouse eyes at 100 mg/kg, po qd measured after 6 days postinfection; assay type: functional, organism-based; parameters: dose 100 mg/kg
[7] = tested on: Vaccinia virus WR; assay: Antiviral activity against Vaccinia virus WR ATCC VR-1354 infected through percutaneous route in BALB/c mouse assessed as reduction of viral load in spleen at 100 mg/kg, po qd measured after 5 days postinfection by RT-PCR analysis relative to control; assay type: functional
[8] = tested on: Vaccinia virus WR; assay: Antiviral activity against Vaccinia virus WR ATCC VR-1354 infected through intravenous route in BALB/c mouse assessed as reduction of viral load in liver at 100 mg/kg, po qd measured after 14 days postinfection by RT-PCR analysis relative to control; assay type: functional, organism-based; parameters: dose 100 mg/kg
[9] = tested on: Vaccinia virus WR; assay: Antiviral activity against Vaccinia virus WR ATCC VR-1354 infected through percutaneous route in BALB/c mouse assessed as protection against virus-induced death at 100 mg/kg, po qd administered 4 days after postinfection measured on day 6; assay type: functional, organism-based; parameters: dose 100 mg/kg
[10] = tested on: Vaccinia virus WR; assay: Antiviral activity against Vaccinia virus WR ATCC VR-1354 infected through intraperitoneal route in BALB/c mouse assessed as protection against virus-induced satellite lesion formation on tails at 100 mg/kg, po qd measured after 6 days postinfection; assay type: functional, organism-based; parameters: dose 100 mg/kg
[11] = tested on: Vaccinia virus WR; assay: Antiviral activity against Vaccinia virus WR ATCC VR-1354 infected through dermal scarification route in BALB/c mouse assessed as reduction of viral load in liver at 100 mg/kg, po qd measured after 5 days postinfection by RT-PCR analysis relative to control; assay type: functional
[12] = tested on: Vaccinia virus WR; assay: Antiviral activity against Vaccinia virus WR ATCC VR-1354 infected through dermal scarification route in BALB/c mouse assessed as protection against virus-induced systemic disease symptoms at 100 mg/kg, po qd measured after 9 days postinfection; assay type: functional, organism-based; parameters: dose 100 mg/kg
[13] = tested on: Vaccinia virus WR; assay: Antiviral activity against Vaccinia virus WR ATCC VR-1354 infected through percutaneous route in BALB/c mouse assessed as protection against virus-induced death at 100 mg/kg, po qd administered 3 days after postinfection measured on day 6; assay type: functional
[14] = tested on: Vaccinia virus WR; assay: Antiviral activity against Vaccinia virus WR ATCC VR-1354 infected through dermal scarification route in BALB/c mouse assessed as reduction of viral load in brain at 100 mg/kg, po qd measured after 5 days postinfection by RT-PCR analysis relative to control; assay type: functional
[15] = tested on: Vaccinia virus WR; assay: Antiviral activity against Vaccinia virus WR ATCC VR-1354 infected through percutaneous route in BALB/c mouse assessed as protection against virus-induced conjunctivitis in mouse eyes at 100 mg/kg, po qd measured after 6 days postinfection; assay type: functional, organism-based; parameters: dose 100 mg/kg
[16] = tested on: Vaccinia virus WR; assay: Antiviral activity against Vaccinia virus WR ATCC VR-1354 infected through percutaneous route in BALB/c mouse assessed as inhibition of virus dissemination in blood at 100 mg/kg, po qd for 1 day by RT-PCR analysis; assay type: functional, organism-based; parameters: dose 100 mg/kg
[17] = tested on: Vaccinia virus WR; assay: Antiviral activity against Vaccinia virus WR ATCC VR-1354 infected through percutaneous route in BALB/c mouse assessed as reduction of viral load in spleen at 100 mg/kg, po qd for 1 day by RT-PCR analysis relative to control; assay type: functional
[18] = tested on: Vaccinia virus WR; assay: Antiviral activity against Vaccinia virus WR ATCC VR-1354 infected through dermal scarification route in BALB/c mouse assessed as reduction of viral load in spleen at 100 mg/kg, po qd measured after 14 days postinfection by RT-PCR analysis relative to control; assay type: functional, organism-based; parameters: dose 100 mg/kg
[19] = tested on: Vaccinia virus WR; assay: Antiviral activity against Vaccinia virus WR ATCC VR-1354 infected through intravenous route in BALB/c mouse assessed as reduction of viral load in spleen at 100 mg/kg, po qd measured after 14 days postinfection by RT-PCR analysis relative to control; assay type: functional, organism-based; parameters: dose 100 mg/kg
[20] = tested on: Vaccinia virus WR; assay: Antiviral activity against Vaccinia virus WR ATCC VR-1354 infected through subcutaneous route in BALB/c mouse assessed as protection against virus-induced satellite lesion formation on tails at 100 mg/kg, po qd measured after 6 days postinfection; assay type: functional, organism-based; parameters: dose 100 mg/kg
[21] = tested on: Vaccinia virus WR; assay: Antiviral activity against Vaccinia virus WR ATCC VR-1354 infected through percutaneous route in BALB/c mouse assessed as reduction of viral load in blood at 100 mg/kg, po qd measured after 13 days postinfection by RT-PCR analysis relative to control; assay type: functional, organism-based; parameters: dose 100 mg/kg
[22] = tested on: Vaccinia virus WR; assay: Antiviral activity against Vaccinia virus WR ATCC VR-1354 infected through intravenous route in BALB/c mouse assessed as reduction of viral load in brain at 100 mg/kg, po qd measured after 14 days postinfection by RT-PCR analysis relative to control; assay type: functional, organism-based; parameters: dose 100 mg/kg
[23] = tested on: Vaccinia virus WR; assay: Antiviral activity against Vaccinia virus WR ATCC VR-1354 infected through intravenous route in BALB/c mouse assessed as protection against virus-induced conjunctivitis in mouse eyes at 100 mg/kg, po qd measured after 6 days postinfection; assay type: functional, organism-based; parameters: dose 100 mg/kg
[24] = tested on: Vaccinia virus WR; assay: Antiviral activity against Vaccinia virus WR ATCC VR-1354 infected through intraperitoneal route in BALB/c mouse assessed as reduction of viral load in lung at 100 mg/kg, po qd measured after 5 days postinfection by RT-PCR analysis relative to control; assay type: functional, organism-based; parameters: dose 100 mg/kg
[25] = tested on: Vaccinia virus WR; assay: Antiviral activity against Vaccinia virus WR ATCC VR-1354 infected through intravenous route in BALB/c mouse assessed as protection against virus-induced satellite lesion formation on tails at 100 mg/kg, po qd measured after 6 days postinfection; assay type: functional, organism-based; parameters: dose 100 mg/kg
[26] = tested on: Vaccinia virus WR; assay: Antiviral activity against Vaccinia virus WR ATCC VR-1354 infected through percutaneous route in BALB/c mouse assessed as reduction of viral load in lungs at 100 mg/kg, po qd measured after 5 days postinfection by RT-PCR analysis relative to control; assay type: functional

With `O=C(NN1C(=O)[C@@H]2[C@@H]3C=C[C@@H]([C@H]4C[C@@H]34)[C@@H]2C1=O)c1ccc(C(F)(F)F)cc1` [TECOVIRIMAT] the Activity [1] was “Active”, the Activity [2] was “Active” and the “fold change (FC)” value [3] was 260. For the same compound, the Activity [4] was “Active”, the Activity [5] was “Active” and the Activity [6] was “Active”. For the same compound, the “fold change (FC)” value [7] was 44000, the Activity [8] was “Active” and the Activity [9] was “inactive”. For the same compound, the Activity [10] was “Active”, the “fold change (FC)” value [11] was 8 and the Activity [12] was “Active”. The Activity [13] was 100%, the “fold change (FC)” value [14] was 3 and the Activity [15] was “Active”. For the same compound, the Activity [16] was “inactive”, the “fold change (FC)” value [17] was 18 and the Activity [18] was “Active”. For the same compound, the Activity [19] was “Active”, the Activity [20] was “Active” and the Activity [21] was “Active”. For the same compound, the Activity [22] was “Active”, the Activity [23] was “Active” and the Activity [24] was “Active”. For the same compound, the Activity [25] was “Active” and the “fold change (FC)” value [26] was 3.5.
